Measurements taken from patent publication US5695970A, “Glucan lyase producing 1,5-anhydrofructose” (priority 1992, dated 1997).
Entries after “also recorded” stand apart in the source; their conditions may differ.

How the values were obtained:
α-1,4-glucan lyase [1] = assay: Inhibition studies of α-1,4-glucan lyase activity; assay type: biochemical, Gracilariopsis lemaneiformis; settings: for inhibition of enzymic activity: 0.1M; for inhibition of the degradation of maltose: 3 mg/ml polysaccharide
Experimental: (§1) The reaction mixture for the assay of α-1,4-glucan lyase was composed of 240 μl 62.5 mM Mops-NaOH containing 6 mg soluble starch (pH 6.2), the enzyme preparation and distilled water to a final volume of 300 μl. The reaction was carried out at 30° C. for 10-30 min. Liberated 1,5-anhydrofructose was determined by monitoring the absorbance at 546 nm after the addition of 3,5-dinitrosalicylic acid reagent. Soluble starch in the reaction mixture may be replaced by other substrates and the final substrate concentration may be varied as indicated in the text. The reaction time and enzyme concentration used in enzyme activity assay have been chosen to ensure the linearity of the reaction rate. One unit of α-1,4-glucan lyase activity is defined as the amount of enzyme which liberates 1μmol of 1,5-anhydrofructose min^-1 under the conditions described above.

α-1,4-glucan lyase [2] = assay: Reaction mode: complete degradation of substrates by the lyase and final products; assay type: biochemical, Gracilariopsis lemaneiformis; settings: for time needed for a complete degradation: enzyme 6 μg protein per ml, 30° C.
Experimental: In an enzyme concentration of 6 μg protein per ml, at 30° C., the time needed for a complete degradation of 1% maltose solution was 1 h, for 2% maltose solution, 3 h, for 5% maltose solution, 10-24 h, for 2% maltoheptaose, 10-24 h. This is in sharp contrast to many polysaccharides' depolymerization enzymes, whose reaction stops with the accumulation of products or with the decrease in substrate size.
When maltoheptaose was used as a substrate, the final products are 1,5-anhydrofructose and glucose and their ratio is 6:1. The intermediate products are a mixture of maltosaccharides with a DP number between 2-6 during the process of the reaction. With the increase of reaction time, the DP number of the maltosaccharides decreased and finally all the maltosaccharides disappeared. When maltose was used as a substrate, the ratio of 1,5-anhydrofructose to glucose was 1:1. With the increase of DP number, the yield of glucose decreased, while the yield of 1,5-anhydrofructose increased. When a linear chain of a α-1,4-glucan is long enough, the yield of 1,5-anhydrofructose can be nearly 100%.

α-1,4-glucan lyase [3] = assay: Elution of α-1,4-glucan lyase from the starch column by glucans; assay type: binding, Gracilariopsis lemaneiformis; settings: glucan 8 mg ml^-1; column 1 ml, 5 ml eluate; recovery with amylopectin = 100%
Experimental: In these experiments, as much as 5 times of the column volume was collected. At high pH, for example, 50 mM bicine-NaOH (pH 8.2), the binding of the enzyme onto the starch column was loose and it was eluted by subsequent washing with the same buffer. Neither ConA-Sepharose nor cycloheptaamylose-Sepharose 6B was effective for the purification of the enzyme because of low recovery.
The efficiency of various glucans (8 mg ml^-1) on the elution of
α-1,4-glucan lyase from the starch column. The column volume
was 1 ml and 5 ml eluate was pooled. The recovery of
α-1,4-glucan lyase eluted by amylopectin was used as 100%.
Gracilariopsis lemaneiformis (originally collected from China), 30 g, was sampled directly from the culture cylinder and was rinsed briefly with deionized water and blotted dry with paper tissue. The following operations were carried out at 0°-4° C. The thalli were cut to pieces with scissors and pulverized under liquid nitrogen. To 1 g alga powder was added 3 volumes of buffer A (50 mM citrate-NaOH, pH 6.6), filtered through two-layer cloth and centrifuged at 36,600×g for 10 min. The supernatant (cell-free extract) was loaded onto a starch column (4.1×1.5 cm) pre-equilibrated with buffer A. After loading, the column was extensively washed with 4 volumes of buffer A, volumes of buffer A containing 1M NaCl, 1 volume of buffer A, 1 volume of buffer B (50 mM imidazole-HCl, pH 6.6) in a flow speed of 24 ml h^-1. α-1,4-Glucan lyase was eluted with buffer B containing 10 mg ml^-1 amylopectin in a fraction size of 3.5 ml. To separate α-1,4-glucan lyase from the amylopectin, the active fractions of the eluate were pooled and applied onto a Q-Sepharose column (2.6×5 cm). The column was pre-equilibrated and later washed with buffer B. α-1,4-Glucan lyase was eluted with buffer B containing 0.7M NaCl. Active fractions were pooled and concentrated on a Centriprep CP30 (Amicon, USA) with a molecule weight cutoff of 30,000 and applied to a Sephacryl S-200 column (2.6×80 cm) pre-equilibrated and eluted with buffer A containing 0.2M NaCl. The flow speed was 60 ml h^-1 with a fraction size of 3.5 ml per tube. Active fractions were collected and concentrated again by using centriprep CP30.

α-1,4-glucan lyase [4] = assay: Substrate specificity of α-1,4-glucan lyase (release of 1,5-anhydrofructose, DNS method, 15 min); assay type: biochemical, Gracilariopsis lemaneiformis; settings: for substrate inhibition: higher substrate concentrations, 10 mg ml^-1 compared with 2 and 4 mg ml^-1; for Activity (% of Maltoheptaose): incubation 15 min
Experimental: When amylopectin was used as a substrate, the activity reached maximum 8 mg ml^-1 and then decreased slightly at 20 mg ml^-1. The same results were obtained with soluble starch and maltoheptaose. When maltotriose and maltose were used as substrates, the activity reached maximum at 2 mg ml^-1 and 6 mg ml^-1, respectively. Substrate inhibition became evident at higher concentrations, especially in the case of maltotriose. […] Generally, the inhibition degree decreased with the increase in DP number (Degree of Polymerization). When the activity measured at 10 mg ml^-1 was compared at 2 mg ml^-1 and 4 mg ml^-1, substrate inhibition could be clearly seen among the maltosaccharides of DP 3-5. In maltohexaose, the substrate inhibition was very low and was none in maltoheptaose. Among the maltosaccharides, maltotetraose and maltopentaose were the poorest substrates.
With PNPG1 (p-nitrophenyl-α-D-glucoside), the artificial substrate of α-glucosidase, reaction rate was the lowest.
Substrate Specificity of α-1,4-Glucan lyase.
The concentration of various substrates in the reaction mixture
was 10 mg ml^-1 except PNPG1, PNPG2, PNPG7, which was 2 mM.
The incubation time was 15 min. The degrading rate of maltoheptaose
was 84 μmol min^-1. mg^-1 protein.
as §1

α-1,4-glucan lyase [5] = assay: Substrate specificity of α-1,4-glucan lyase, long term incubation (24 h), continuation of Table IV; assay type: biochemical, Gracilariopsis lemaneiformis
Experimental: The incubation time was 24 h.
as §1

## O=C(CO)[C@@H](O)[C@H](O)[C@H](O)CO [fructose]
α-1,4-glucan lyase [1]; amylopectin as substrate
  inhibition of enzymic activity: no inhibition
α-1,4-glucan lyase [1]; maltose as substrate
  inhibition of enzymic activity: no inhibition
α-1,4-glucan lyase [2]
  conversion of monosaccharide to 1,5-anhydrofructose by the lyase: can not convert

## OC[C@H]1OC(O)[C@@H](O)[C@@H](O)[C@@H]1O (stereo partly drawn) [mannose]
α-1,4-glucan lyase [1]; amylopectin as substrate
  inhibition of enzymic activity: no inhibition
α-1,4-glucan lyase [1]; maltose as substrate
  inhibition of enzymic activity: no inhibition
α-1,4-glucan lyase [2]
  conversion of monosaccharide to 1,5-anhydrofructose by the lyase: can not convert

## OC[C@H]1OC(O)[C@H](O)[C@@H](O)[C@@H]1O (stereo partly drawn) [Glucose, glucose]
α-1,4-glucan lyase [1]; amylopectin as substrate
  inhibition of enzymic activity: no inhibition
α-1,4-glucan lyase [1]; maltose as substrate
  inhibition of enzymic activity: around 22%
α-1,4-glucan lyase [1]; products accumulating during the enzyme reaction
  product inhibition: effect on enzyme reaction rate: negligible effect
α-1,4-glucan lyase [3]
  Elution Efficiency: 0%
α-1,4-glucan lyase [2]
  conversion of monosaccharide to 1,5-anhydrofructose by the lyase: can not convert

## OC[C@H]1O[C@H](O[C@H]2[C@H](O)[C@@H](O)[C@@H](O[C@H]3[C@H](O)[C@@H](O)C(O)O[C@@H]3CO)O[C@@H]2CO)[C@H](O)[C@@H](O)[C@@H]1O (stereo partly drawn) [Maltotriose, maltotriose]
α-1,4-glucan lyase [4]
  substrate concentration at which the activity reached maximum: 2 mg/mL
  substrate inhibition: showed substrate inhibition
α-1,4-glucan lyase [4]; substrate 10 mg ml^-1
  Activity (% of Maltoheptaose): 39.1%

## O=[N+]([O-])c1ccc(O[C@H]2O[C@H](CO)[C@@H](O[C@H]3O[C@H](CO)[C@@H](O)[C@H](O)[C@H]3O)[C@H](O)[C@H]2O)cc1 [PNPG2, p-nitrophenyl-α-D-maltoside]
α-1,4-glucan lyase [4]; substrate 2 mM
  Activity (% of Maltoheptaose): 22.5%

## OC[C@H]1O[C@H](O[C@H]2[C@H](O)[C@@H](O)[C@@H](O[C@H]3[C@H](O)[C@@H](O)[C@@H](O[C@H]4[C@H](O)[C@@H](O)C(O)O[C@@H]4CO)O[C@@H]3CO)O[C@@H]2CO)[C@H](O)[C@@H](O)[C@@H]1O (stereo partly drawn) [Maltotetraose, maltotetraose]
α-1,4-glucan lyase [4]
  substrate inhibition: showed substrate inhibition
α-1,4-glucan lyase [4]; substrate 10 mg ml^-1
  Activity (% of Maltoheptaose): 27.8%
α-1,4-glucan lyase [3]
  Elution Efficiency: 65.7%

## amylose
α-1,4-glucan lyase [4]; substrate 10 mg ml^-1
  Activity (% of Maltoheptaose): 100.4%

## glycogen
α-1,4-glucan lyase [4]; substrate 10 mg ml^-1
  Activity (% of Maltoheptaose): 77.6%
α-1,4-glucan lyase [1]; maltose as substrate
  inhibition of the degradation of maltose: ~47%
α-1,4-glucan lyase [3]
  Elution Efficiency: 87.1%

## β-limit dextrin
α-1,4-glucan lyase [4]; substrate 10 mg ml^-1
  Activity (% of Maltoheptaose): 22.7%

## OC[C@H]1O[C@H](O[C@H]2[C@H](O)[C@@H](O)[C@H](O)O[C@@H]2CO)[C@H](O)[C@@H](O)[C@@H]1O [Maltose, maltose]
α-1,4-glucan lyase [4]
  substrate concentration at which the activity reached maximum: 6 mg/mL
  substrate inhibition: showed substrate inhibition
α-1,4-glucan lyase [4]; substrate 10 mg ml^-1
  Activity (% of Maltoheptaose): 66.7%
α-1,4-glucan lyase [3]
  Elution Efficiency: 56.4%
α-1,4-glucan lyase [2]; 1% solution
  time needed for a complete degradation: 1 h
α-1,4-glucan lyase [2]; 2% maltose solution
  time needed for a complete degradation: 3 h
α-1,4-glucan lyase [2]; 5% solution
  time needed for a complete degradation: 10 to 24 h

## OC[C@H]1O[C@H](O[C@H]2[C@H](O)[C@@H](O)[C@@H](O[C@H]3[C@H](O)[C@@H](O)[C@@H](O[C@H]4[C@H](O)[C@@H](O)[C@@H](O[C@H]5[C@H](O)[C@@H](O)C(O)O[C@@H]5CO)O[C@@H]4CO)O[C@@H]3CO)O[C@@H]2CO)[C@H](O)[C@@H](O)[C@@H]1O (stereo partly drawn) [Maltopentaose, maltopentaose]
α-1,4-glucan lyase [4]
  substrate inhibition: showed substrate inhibition
α-1,4-glucan lyase [4]; substrate 10 mg ml^-1
  Activity (% of Maltoheptaose): 36.6%

## OC[C@H]1OC(O)[C@H](O)[C@@H](O)[C@H]1O (stereo partly drawn) [galactose]
α-1,4-glucan lyase [1]; amylopectin as substrate
  inhibition of enzymic activity: no inhibition
α-1,4-glucan lyase [1]; maltose as substrate
  inhibition of enzymic activity: no inhibition
α-1,4-glucan lyase [2]
  conversion of monosaccharide to 1,5-anhydrofructose by the lyase: can not convert

## pullulan
α-1,4-glucan lyase [5]; long term incubation at 30° C.
  activity of the lyase with the substrate (in words): no detectable activity; also recorded: little or no activity
α-1,4-glucan lyase [5]; substrate 4 mg ml^-1, 1.64 μg enzyme, 24 h
  Product released: 0 nmol
α-1,4-glucan lyase [1]; maltose as substrate
  inhibition of the degradation of maltose: did not inhibit
α-1,4-glucan lyase [3]
  Elution Efficiency: 32.3%

## O=[N+]([O-])c1ccc(O[C@H]2O[C@H](CO)[C@@H](O[C@H]3O[C@H](CO)[C@@H](O[C@H]4O[C@H](CO)[C@@H](O[C@H]5O[C@H](CO)[C@@H](O[C@H]6O[C@H](CO)[C@@H](O[C@H]7O[C@H](CO)[C@@H](O[C@H]8O[C@H](CO)[C@@H](O)[C@H](O)[C@H]8O)[C@H](O)[C@H]7O)[C@H](O)[C@H]6O)[C@H](O)[C@H]5O)[C@H](O)[C@H]4O)[C@H](O)[C@H]3O)[C@H](O)[C@H]2O)cc1 [PNPG7, p-nitrophenyl-α-D-maltoheptaoside]
α-1,4-glucan lyase [4]; substrate 2 mM
  Activity (% of Maltoheptaose): 100.0%

## amylopectin
α-1,4-glucan lyase [4]
  substrate concentration at which the activity reached maximum: 8 mg/mL
α-1,4-glucan lyase [4]; substrate 10 mg ml^-1
  Activity (% of Maltoheptaose): 94.1%
α-1,4-glucan lyase [1]; maltose as substrate
  inhibition of the degradation of maltose: around 67%
  type of inhibition: mixed competive/non-competive
α-1,4-glucan lyase [1]; summary statement, maltose as substrate
  inhibition of the algal enzyme (in words): inhibited
α-1,4-glucan lyase [3]
  Elution Efficiency: 100%

## OC[C@H]1O[C@H](O[C@H]2[C@H](O)[C@@H](O)[C@@H](O[C@H]3[C@H](O)[C@@H](O)[C@@H](O[C@H]4[C@H](O)[C@@H](O)[C@@H](O[C@H]5[C@H](O)[C@@H](O)[C@@H](O[C@H]6[C@H](O)[C@@H](O)C(O)O[C@@H]6CO)O[C@@H]5CO)O[C@@H]4CO)O[C@@H]3CO)O[C@@H]2CO)[C@H](O)[C@@H](O)[C@@H]1O (stereo partly drawn) [Maltohexaose, maltohexaose]
α-1,4-glucan lyase [4]
  substrate inhibition: very low
α-1,4-glucan lyase [4]; substrate 10 mg ml^-1
  Activity (% of Maltoheptaose): 74.6%
